Experiments:
Type in all cases: cell-based
[1] = biological target: HER2 (A775_G776insYVMA) expressing Ba/F3 stable cell line (Homo sapiens, UniProt P04626, DUP772-775, cells depend on it); test: Cellular proliferation (Alamar Blue) assay, HER2 A775_G776insYVMA Ba/F3; details: 72 hr, read-out: YVMA IC50
Protocol: • 1. EGFR(D770_N771insSVD) expressing Ba/F3 stable cell line • 2. EGFR (A767_dupASV) expressing Ba/F3 stable cell line • 3. A431 cells • 4. EGFR (H773insNPH) expressing Ba/F3 stable cell line • 5. HER2 (A775_G776insYVMA) expressing Ba/F3 stable cell line Assay Procedure: • 1. Seed cells at 5000 for A431 and 15,000 cells for Ba/F3 in 100 μL/well in complete media (for A431: DMEM with […] and for Ba/F3 cells: RPMI with 10% FBS) in 96-well tissue culture plate. Leave outer wells without cells for background measurements. Incubate at 37 degree Celsius in […] humidified incubator for 16-18 hours. • 2. Add 0.025 ml of 5× concentration compound dilution or DMSO control. Final compound concentration range is 10-0.0005 μM prepared in 3-fold serial dilutions. Incubate for 72 hr at 37 degree Celsius in […] humidified incubator. • 3. Add 0.0125 ml Alamar Blue™ reagent to each well with multi-channel pipette and tap gently on each side of the plate to mix. Incubate for 3 hours at 37 degree Celsius in 5% CO2 humidified incubator. • 4. […] Data analysis was performed using XLfit 5.5.0.5.

[2] = biological target: EGFR (A767_dupASV) expressing Ba/F3 stable cell line (Homo sapiens, UniProt P00533, DUP767-769, cells depend on it); test: Cellular proliferation (Alamar Blue) assay, EGFR A767_dupASV Ba/F3; details: 72 hr, read-out: A767 IC50
Chain of EGFR (A767_dupASV) expressing Ba/F3 stable cell line (P00533 with tags, fused parts or gaps DUP767-769): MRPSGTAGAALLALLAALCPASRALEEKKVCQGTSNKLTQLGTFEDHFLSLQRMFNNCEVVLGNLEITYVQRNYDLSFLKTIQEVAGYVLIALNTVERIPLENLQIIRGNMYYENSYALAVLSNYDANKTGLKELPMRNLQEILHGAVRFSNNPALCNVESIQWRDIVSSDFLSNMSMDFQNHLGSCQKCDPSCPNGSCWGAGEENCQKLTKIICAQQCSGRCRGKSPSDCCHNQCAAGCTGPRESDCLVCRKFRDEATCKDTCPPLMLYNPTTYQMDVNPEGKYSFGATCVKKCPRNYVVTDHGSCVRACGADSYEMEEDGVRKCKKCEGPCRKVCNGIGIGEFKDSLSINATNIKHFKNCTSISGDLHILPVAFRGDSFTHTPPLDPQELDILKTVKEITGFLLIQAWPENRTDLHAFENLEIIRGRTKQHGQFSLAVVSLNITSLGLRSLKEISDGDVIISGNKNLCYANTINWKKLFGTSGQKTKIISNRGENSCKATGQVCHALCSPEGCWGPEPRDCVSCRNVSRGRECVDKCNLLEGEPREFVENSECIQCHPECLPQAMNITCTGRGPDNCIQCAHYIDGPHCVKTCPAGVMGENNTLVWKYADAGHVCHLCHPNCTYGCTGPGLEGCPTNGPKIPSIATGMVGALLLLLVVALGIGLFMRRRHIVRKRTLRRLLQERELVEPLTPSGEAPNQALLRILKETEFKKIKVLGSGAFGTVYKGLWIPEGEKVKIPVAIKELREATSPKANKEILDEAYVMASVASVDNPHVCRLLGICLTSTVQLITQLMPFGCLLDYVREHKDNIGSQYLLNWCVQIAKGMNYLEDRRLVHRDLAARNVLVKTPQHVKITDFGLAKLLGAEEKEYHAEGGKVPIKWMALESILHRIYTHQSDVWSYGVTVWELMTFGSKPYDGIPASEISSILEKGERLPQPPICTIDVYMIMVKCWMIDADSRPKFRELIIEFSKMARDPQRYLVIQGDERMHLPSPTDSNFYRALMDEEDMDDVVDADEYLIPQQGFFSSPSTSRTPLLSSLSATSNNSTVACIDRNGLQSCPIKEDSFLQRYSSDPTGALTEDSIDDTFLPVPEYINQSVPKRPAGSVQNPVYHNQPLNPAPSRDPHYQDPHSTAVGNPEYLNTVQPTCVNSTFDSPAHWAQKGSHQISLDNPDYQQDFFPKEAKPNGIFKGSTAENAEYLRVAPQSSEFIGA
In short: (§1)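 Steps: plate 15,000 Ba/F3 cells/well in RPMI/10% FBS; rest 16-18 h, 37 °C; add compound at final 10-0.0005 μM (3-fold series) or DMSO; incubate 72 hr; add Alamar Blue; read after 3 h.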

A431 cells = test: Cellular proliferation (Alamar Blue) assay, A431; details: Homo sapiens, A-431; A431 cells, 72 hr, Alamar Blue; read-out: A431 IC50
[3] = biological target: EGFR(D770_N771insSVD) expressing Ba/F3 stable cell line (Homo sapiens, UniProt P00533, DUP768-770, cells depend on it); test: Cellular proliferation (Alamar Blue) assay, EGFR D770_N771insSVD Ba/F3; details: 72 hr, read-out: D770 IC50
Chain of EGFR(D770_N771insSVD) expressing Ba/F3 stable cell line (P00533 with tags, fused parts or gaps DUP768-770): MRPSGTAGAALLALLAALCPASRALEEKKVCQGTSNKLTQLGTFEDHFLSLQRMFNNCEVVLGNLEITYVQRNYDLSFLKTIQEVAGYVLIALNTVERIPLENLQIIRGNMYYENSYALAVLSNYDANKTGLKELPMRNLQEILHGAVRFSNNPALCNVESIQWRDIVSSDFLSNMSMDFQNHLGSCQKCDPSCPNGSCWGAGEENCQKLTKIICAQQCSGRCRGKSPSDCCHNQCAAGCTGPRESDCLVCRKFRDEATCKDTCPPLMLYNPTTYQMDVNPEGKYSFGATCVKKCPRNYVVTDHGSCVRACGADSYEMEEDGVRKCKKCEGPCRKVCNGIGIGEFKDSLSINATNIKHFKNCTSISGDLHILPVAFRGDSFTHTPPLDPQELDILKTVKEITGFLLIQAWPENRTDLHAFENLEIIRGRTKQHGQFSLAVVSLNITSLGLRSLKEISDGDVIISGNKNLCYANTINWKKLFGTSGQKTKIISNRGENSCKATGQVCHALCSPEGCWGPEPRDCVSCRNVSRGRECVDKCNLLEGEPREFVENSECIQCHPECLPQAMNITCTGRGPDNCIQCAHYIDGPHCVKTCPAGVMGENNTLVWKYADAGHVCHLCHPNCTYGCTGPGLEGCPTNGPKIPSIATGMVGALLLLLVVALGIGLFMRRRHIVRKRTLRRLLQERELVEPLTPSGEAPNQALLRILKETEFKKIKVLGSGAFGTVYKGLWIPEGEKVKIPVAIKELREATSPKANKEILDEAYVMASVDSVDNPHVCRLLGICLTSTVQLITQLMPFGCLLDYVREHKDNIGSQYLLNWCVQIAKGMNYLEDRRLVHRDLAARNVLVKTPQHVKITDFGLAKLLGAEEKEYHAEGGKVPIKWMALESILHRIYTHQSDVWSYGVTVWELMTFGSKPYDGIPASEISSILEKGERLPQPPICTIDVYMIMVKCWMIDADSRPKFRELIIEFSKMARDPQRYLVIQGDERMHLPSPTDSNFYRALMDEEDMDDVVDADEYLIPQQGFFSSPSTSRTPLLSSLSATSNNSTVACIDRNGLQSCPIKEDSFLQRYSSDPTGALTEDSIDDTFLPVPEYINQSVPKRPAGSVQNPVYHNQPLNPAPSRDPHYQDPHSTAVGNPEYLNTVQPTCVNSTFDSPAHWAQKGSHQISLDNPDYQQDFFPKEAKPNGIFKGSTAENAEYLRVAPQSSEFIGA
In short: as §1

Chain of HER2 (A775_G776insYVMA) expressing Ba/F3 stable cell line (P04626 with tags, fused parts or gaps DUP772-775): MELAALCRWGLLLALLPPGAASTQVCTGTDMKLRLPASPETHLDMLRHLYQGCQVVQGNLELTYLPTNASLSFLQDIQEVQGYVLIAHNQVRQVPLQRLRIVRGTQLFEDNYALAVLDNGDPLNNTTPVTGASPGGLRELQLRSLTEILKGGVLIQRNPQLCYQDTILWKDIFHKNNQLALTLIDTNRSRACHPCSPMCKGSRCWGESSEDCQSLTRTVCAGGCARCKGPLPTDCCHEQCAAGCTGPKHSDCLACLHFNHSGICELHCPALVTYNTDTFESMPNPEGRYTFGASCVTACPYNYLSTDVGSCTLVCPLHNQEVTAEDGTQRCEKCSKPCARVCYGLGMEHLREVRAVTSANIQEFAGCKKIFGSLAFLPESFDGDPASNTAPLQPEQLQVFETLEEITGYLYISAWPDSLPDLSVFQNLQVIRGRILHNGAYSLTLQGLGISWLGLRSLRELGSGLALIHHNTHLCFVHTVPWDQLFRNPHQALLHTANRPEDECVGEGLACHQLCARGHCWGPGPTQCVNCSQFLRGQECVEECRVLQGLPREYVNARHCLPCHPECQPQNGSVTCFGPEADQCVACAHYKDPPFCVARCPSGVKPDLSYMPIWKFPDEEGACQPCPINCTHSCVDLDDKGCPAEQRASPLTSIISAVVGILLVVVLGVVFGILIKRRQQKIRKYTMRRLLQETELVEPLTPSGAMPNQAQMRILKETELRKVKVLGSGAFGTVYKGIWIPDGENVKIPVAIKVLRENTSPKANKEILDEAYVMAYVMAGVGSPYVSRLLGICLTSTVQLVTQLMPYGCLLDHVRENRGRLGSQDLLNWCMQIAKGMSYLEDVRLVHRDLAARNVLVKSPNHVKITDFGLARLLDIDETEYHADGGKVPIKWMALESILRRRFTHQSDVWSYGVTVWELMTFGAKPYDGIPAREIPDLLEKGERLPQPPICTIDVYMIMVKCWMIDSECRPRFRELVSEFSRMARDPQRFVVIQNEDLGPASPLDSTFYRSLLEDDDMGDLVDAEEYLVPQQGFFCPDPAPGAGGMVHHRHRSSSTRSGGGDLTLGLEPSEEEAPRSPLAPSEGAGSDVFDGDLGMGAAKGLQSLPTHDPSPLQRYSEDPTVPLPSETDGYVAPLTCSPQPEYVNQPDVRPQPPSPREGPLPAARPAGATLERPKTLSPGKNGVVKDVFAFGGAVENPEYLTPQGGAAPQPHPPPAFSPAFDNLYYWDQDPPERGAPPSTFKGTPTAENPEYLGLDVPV

SMILES | GI50 [1] [nM] | GI50 [2] [nM] | IC50 (A431 cells) [nM] | GI50 [3] [nM]
C=CC(=O)Nc1ccc(F)c(Nc2nc(Nc3cnn(C)c3)ncc2-c2ccccc2Cl)c1 [Compound 150, N-(3-((5-(2-chlorophenyl)-2-((1-methyl-1H-pyrazol-4-yl)amino)pyrimidin-4-yl)amino)-4-fluorophenyl)acrylamide 2,2,2-trifluoroacetate] | 1810 | – | – | –
C=CC(=O)Nc1ccc(F)c(Nc2nc(Nc3nccs3)ncc2-c2ccc(C(F)(F)F)cc2)c1 [Compound 215, N-(4-fluoro-3-((2-(thiazol-2-ylamino)-5-(4-(trifluoromethyl)phenyl)pyrimidin-4-yl)amino)phenyl)acrylamide] | – | > 10000 | 2270 | 991
C=CC(=O)Nc1ccc(F)c(Nc2nc(Nc3csc(C)c3)ncc2-c2ccc(C(F)(F)F)cc2)c1 [Compound 217, N-(4-fluoro-3-((2-((5-methylthiophen-3-yl)amino)-5-(4-(trifluoromethyl)phenyl)pyrimidin-4-yl)amino)phenyl)acrylamide] | – | 1130 | > 10000 | 916
C=CC(=O)Nc1ccc(F)c(Nc2nc(Nc3cccc(CN(C)C)c3)ncc2-c2ccc(C(F)(F)F)cc2)c1 [Compound 218, N-(3-((2-((3-((dimethylamino)methyl)phenyl)amino)-5-(4-(trifluoromethyl)phenyl)pyrimidin-4-yl)amino)-4-fluorophenyl)acrylamide] | – | 8470 | 1580 | 1690
C=CC(=O)Nc1ccc(F)c(Nc2nc(Nc3cnn(C4CCOCC4)c3)ncc2-c2ccc(C(F)(F)F)cc2)c1 [Compound 220, N-(4-fluoro-3-((2-((1-(tetrahydro-2H-pyran-4-yl)-1H-pyrazol-4-yl)amino)-5-(4-(trifluoromethyl)phenyl)pyrimidin-4-yl)amino)phenyl)acrylamide] | – | 211 | 133 | 110
C=CC(=O)Nc1ccc(F)c(Nc2nc(Nc3cnn(C)c3)ncc2N2CCOCC2)c1 [Compound 222, N-(4-fluoro-3-((2-((1-methyl-1H-pyrazol-4-yl)amino)-5-morpholinopyrimidin-4-yl)amino)phenyl)acrylamide] | – | > 10000 | 8150 | > 10000
C=CC(=O)Nc1cccc(Oc2nc(Nc3cnn(C)c3)ncc2N2CCN(C)CC2)c1 [Compound 223, N-(3-((2-((1-methyl-1H-pyrazol-4-yl)amino)-5-(4-methylpiperazin-1-yl)pyrimidin-4-yl)oxy)phenyl)acrylamide] | – | 9700 | 3920 | 9030
C=CC(=O)Nc1cccc(Nc2nc(Nc3cnn(C)c3)nc(NC)c2-c2ccc(C(F)(F)F)cc2)c1 [Compound 224, N-[3-({2-[(1-methyl-1H-pyrazol-4-yl)amino]-6-(methylamino)-5-[4-(trifluoromethyl)phenyl]pyrimidin-4-yl}amino)phenyl] prop-2-enamide] | – | > 10000 | > 10000 | > 10000
C=CC(=O)Nc1ccc(F)c(Nc2nc(Nc3cnoc3)ncc2-c2ccc(C(F)(F)F)cc2)c1 [Compound 225, N-[4-fluoro-3-({2-[(1,2-oxazol-4-yl)amino]-5-[4-(trifluoromethyl)phenyl]pyrimidin-4-yl}amino)phenyl]prop-2-enamide] | – | 2690 | 637 | 1240
C=CC(=O)Nc1ccc(F)c(Nc2nc(Nc3cnn(C)c3)ncc2C2=CCN(C)C2)c1 [Compound 226, N-[4-fluoro-3-({2-[(1-methyl-1H-pyrazol-4-yl)amino]-5-(1-methyl-2,5-dihydro-1H-pyrrol-3-yl)pyrimidin-4-yl}amino)phenyl]prop-2-enamide] | – | 1610 | 1780 | 793
C=CC(=O)Nc1ccc(F)c(Nc2nc(Nc3cnn(C)c3)ncc2C2CCN(C)C2)c1 (centres unmarked) [Compound 227, N-[4-fluoro-3-({2-[(1-methyl-1H-pyrazol-4-yl)amino]-5-(1-methylpyrrolidin-3-yl)pyrimidin-4-yl}amino)phenyl]prop-2-enamide] | – | 7090 | 6060 | > 10000
C=CC(=O)Nc1cccc(N(C)c2nc(Nc3cnn(C)c3)ncc2-c2ccc(C(F)(F)F)cc2)c1 [Compound 229, N-(3-(methyl(2-((1-methyl-1H-pyrazol-4-yl)amino)-5-(4-(trifluoromethyl)phenyl)pyrimidin-4-yl)amino)phenyl)acrylamide] | – | 426 | 222 | 318
C=CC(=O)Nc1ccc(F)c(Nc2nc(Nc3cnn(C)c3)nc3ccc(C(F)(F)F)cc23)c1 [Compound 231, N-(4-fluoro-3-((2-((1-methyl-1H-pyrazol-4-yl)amino)-6-(trifluoromethyl)quinazolin-4-yl)amino)phenyl)acrylamide] | – | 3900 | 4210 | 8550
C=CC(=O)Nc1ccc(F)c(Nc2nc(Nc3cccnc3)ncc2-c2ccc(C(F)(F)F)cc2)c1 [Compound 232, N-(4-fluoro-3-((2-(pyridin-3-ylamino)-5-(4-(trifluoromethyl)phenyl)pyrimidin-4-yl)amino)phenyl)acrylamide] | – | 1130 | 539 | 724
C=CC(=O)Nc1cccc(Oc2nc(Nc3ccc(CN(C)C)cc3)ncc2-c2ccc(C(F)(F)F)cc2)c1 [Compound 234, N-(3-((2-((4-((dimethylamino)methyl)phenyl)amino)-5-(4-(trifluoromethyl)phenyl)pyrimidin-4-yl)oxy)phenyl)acrylamide] | – | 948 | 1130 | 383
C=CC(=O)Nc1cccc(Oc2nc(Nc3cnn(CCN(C)C)c3)ncc2-c2ccc(C(F)(F)F)cc2)c1 [Compound 235, N-(3-((2-((1-(2-(dimethylamino)ethyl)-1H-pyrazol-4-yl)amino)-5-(4-(trifluoromethyl)phenyl)pyrimidin-4-yl)oxy)phenyl)acrylamide] | – | 980 | 1070 | 619
C=CC(=O)Nc1cccc(Oc2nc(NCCN(C)C)ncc2-c2ccc(C(F)(F)F)cc2)c1 [Compound 236, N-(3-((2-((2-(dimethylamino)ethyl)amino)-5-(4-(trifluoromethyl)phenyl)pyrimidin-4-yl)oxy)phenyl)acrylamide] | – | > 10000 | > 10000 | > 10000
C=C=CC(=O)Nc1ccc(F)c(Nc2nc(Nc3cnn(C)c3)ncc2-c2ccc(C(F)(F)F)cc2)c1 [Compound 251, N-(4-fluoro-3-((2-((1-methyl-1H-pyrazol-4-yl)amino)-5-(4-(trifluoromethyl)phenyl)pyrimidin-4-yl)amino)phenyl)buta-2,3-dienamide] | – | 9880 | 9770 | 10000
C=CC(=O)Nc1ccc(F)c(Nc2nc(Nc3cnn(C)c3)ncc2C2CCOCC2)c1 [Compound 255, N-(4-fluoro-3-((2-((1-methyl-1H-pyrazol-4-yl)amino)-5-(tetrahydro-2H-pyran-4-yl)pyrimidin-4-yl)amino)phenyl)acrylamide] | > 10000 | – | – | –
Cn1cc(Nc2ncc(-c3ccc(C(F)(F)F)cc3)c(Nc3cc(N)ccc3F)n2)cn1 [Compound 257, N^4-(5-amino-2-fluorophenyl)-N^2-(1-methyl-1H-pyrazol-4-yl)-5-(4-(trifluoromethyl)phenyl)pyrimidine-2,4-diamine] | – | > 10000 | > 10000 | > 10000
Cn1cc(Nc2ncc(-c3ccc(CC(F)(F)F)cc3)c(Nc3cc(NC(=O)/C=C/CF)ccc3F)n2)cn1 [Compound 303, (E)-4-fluoro-N-(4-fluoro-3-((2-((1-methyl-1H-pyrazol-4-yl)amino)-5-(4-(2,2,2-trifluoroethyl)phenyl)pyrimidin-4-yl)amino)phenyl)but-2-enamide] | – | 248 | 20 | 111
CN(C)C/C=C/C(=O)Nc1ccc(F)c(Nc2nc(Nc3cnn(C)c3)ncc2-c2ccc(Br)cc2)c1 [Compound 304, (E)-N-(3-((5-(4-bromophenyl)-2-((1-methyl-1H-pyrazol-4-yl)amino)pyrimidin-4-yl)amino)-4-fluorophenyl)-4-(dimethylamino)but-2-enamide] | – | 969 | 790 | 1520
C=CC(=O)Nc1ccc(F)c(Nc2nc(N(C)c3cnn(C)c3)ncc2-c2cc(F)cc(OC)c2)c1 [Compound 305, N-(4-fluoro-3-((5-(3-fluoro-5-methoxyphenyl)-2-(methyl(1-methyl-1H-pyrazol-4-yl)amino)pyrimidin-4-yl)amino)phenyl)acrylamide] | – | > 10000 | > 10000 | > 10000

Reference: patent US12686673B2 (Blueprint Medicines Corporation, priority 2020, dated 2026)
